The structures appear in SMILES notation.

One test concerns the target T1, PI3Kβ (Homo sapiens, UniProt P42338).
T1 construct: endogenous in cells; host or cells: Jurkat cells (ATCC TIB-152) lysate, the only lysate described
The test is described as follows: kinobeads assay, PI3K beta (dot blot detection). The test is classed as binding. The settings on record: Table 4, read-out: Inhibition values (IC50) PI3Kb.

The target in another test is T2, PI3Kγ (Homo sapiens, UniProt P48736).
T2 construct: endogenous in cells; host or cells: Jurkat cells (ATCC TIB-152) lysate, the only lysate described
Kind of test: kinobeads assay, PI3K gamma (dot blot detection). The test is classed as binding. As to conditions: Table 4, read-out: Inhibition values (IC50) PI3Kg.

The target in test [1] is T3, kinases (kinome) (Homo sapiens, UniProt O96013).
T3 construct: determined in kinobeads assays with mass spectrometry detection of kinases as described previously; endogenous in cells; host or cells: cell lysate
The test is described as follows: kinobeads assay with mass spectrometry detection of kinases (kinase selectivity profile). As to conditions: PAK4 (STE), IPI00014068. It is filed as binding. The text has this:
(§1) The protein kinase complement of the human genome (the kinome) was described previously (Manning et al., 2002. Science 298(5600):1912-1934). Sequence accession numbers are defined by the International Protein Index (IPI) (Kersey et al., 2004. Proteomics 4(7):1985-1988).

Test [2] addresses T4, kinases (kinome) (Homo sapiens, UniProt P07948).
T4 construct: determined in kinobeads assays with mass spectrometry detection of kinases as described previously; endogenous in cells; host or cells: cell lysate
The test is described as above. The test is classed as binding. As to conditions: LYN (TK), IPI00298625.
Text: as §1

The target in test [3] is T5, kinases (kinome) (Homo sapiens, UniProt P30291).
T5 construct: determined in kinobeads assays with mass spectrometry detection of kinases as described previously; endogenous in cells; host or cells: cell lysate
The test is described as above. The test is classed as binding. The settings on record: Wee1 (Other), IPI00025830.
Text: as §1

Test [4] concerns the target T6, kinases (kinome) (Homo sapiens, UniProt P53671).
T6 construct: determined in kinobeads assays with mass spectrometry detection of kinases as described previously; endogenous in cells; host or cells: cell lysate
The test is described as above. The settings on record: LIMK2 (TKL), IPI00025698. The test is classed as binding.
Text: as §1

The target of test [5] is T7, kinases (kinome) (Homo sapiens, UniProt Q00534).
T7 construct: determined in kinobeads assays with mass spectrometry detection of kinases as described previously; endogenous in cells; host or cells: cell lysate
The test is described as above. The test is classed as binding. The settings on record: CDK6 (CMGC), IPI00023529.
Text: as §1

The target of test [6] is T8, kinases (kinome) (Homo sapiens, UniProt Q08345).
T8 construct: determined in kinobeads assays with mass spectrometry detection of kinases as described previously; endogenous in cells; host or cells: cell lysate
The description is as above. The test is classed as binding. As to conditions: DDR1 (TK), IPI00657861.
Text: as §1

Test [7] has as its target T9, kinases (kinome) (Homo sapiens, UniProt Q14164).
T9 construct: determined in kinobeads assays with mass spectrometry detection of kinases as described previously; endogenous in cells; host or cells: cell lysate
T9 sequence (Q14164 1-716): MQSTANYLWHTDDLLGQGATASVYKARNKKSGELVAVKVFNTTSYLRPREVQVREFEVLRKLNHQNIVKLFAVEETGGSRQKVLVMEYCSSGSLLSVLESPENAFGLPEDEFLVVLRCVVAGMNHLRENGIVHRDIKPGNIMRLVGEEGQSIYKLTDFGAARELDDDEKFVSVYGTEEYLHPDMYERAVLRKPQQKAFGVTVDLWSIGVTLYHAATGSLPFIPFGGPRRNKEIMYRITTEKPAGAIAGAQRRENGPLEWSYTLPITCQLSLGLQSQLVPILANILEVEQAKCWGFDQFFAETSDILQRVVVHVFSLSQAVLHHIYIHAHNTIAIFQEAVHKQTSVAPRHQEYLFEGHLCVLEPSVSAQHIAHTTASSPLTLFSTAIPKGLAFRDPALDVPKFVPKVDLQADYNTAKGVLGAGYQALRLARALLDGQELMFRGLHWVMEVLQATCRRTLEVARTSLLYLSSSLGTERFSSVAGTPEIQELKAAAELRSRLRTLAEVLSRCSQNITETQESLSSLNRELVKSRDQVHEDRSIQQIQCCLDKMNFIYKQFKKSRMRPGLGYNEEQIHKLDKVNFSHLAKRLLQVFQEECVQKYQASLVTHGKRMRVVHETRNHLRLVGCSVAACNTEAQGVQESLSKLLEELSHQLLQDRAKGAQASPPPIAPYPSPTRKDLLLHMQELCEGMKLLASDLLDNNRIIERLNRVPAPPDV
The description is as above. It is filed as binding. As to conditions: IKKe (Other), IPI00029045.
Text: as §1

Test [8] relates to S6RP serine-240/244 phosphorylation in HEK293T/17 cells. The test is described as follows: In vitro phospho-S6 cellular assay (pS6RP S240/244). It is filed as cell-based. As to conditions: Homo sapiens, Table 6, 2 hours, S6RP Ser240/244, read-out: pS6 (phospho-S6 cell assay data, activity level). A digest of the protocol: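 HEK293T/17 cells in DMEM with 2% FCS treated with 8 compound concentrations (0.1% DMSO) for 2 h at 37 °C, then lysed. Phospho-S6RP Ser240/244 or phospho-Akt Ser473 quantified by MesoScale sandwich immunoassay with Sulfo-Tag detection; IC50 from variable-slope sigmoidal fit.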

T5 sequence (P30291 whole entry): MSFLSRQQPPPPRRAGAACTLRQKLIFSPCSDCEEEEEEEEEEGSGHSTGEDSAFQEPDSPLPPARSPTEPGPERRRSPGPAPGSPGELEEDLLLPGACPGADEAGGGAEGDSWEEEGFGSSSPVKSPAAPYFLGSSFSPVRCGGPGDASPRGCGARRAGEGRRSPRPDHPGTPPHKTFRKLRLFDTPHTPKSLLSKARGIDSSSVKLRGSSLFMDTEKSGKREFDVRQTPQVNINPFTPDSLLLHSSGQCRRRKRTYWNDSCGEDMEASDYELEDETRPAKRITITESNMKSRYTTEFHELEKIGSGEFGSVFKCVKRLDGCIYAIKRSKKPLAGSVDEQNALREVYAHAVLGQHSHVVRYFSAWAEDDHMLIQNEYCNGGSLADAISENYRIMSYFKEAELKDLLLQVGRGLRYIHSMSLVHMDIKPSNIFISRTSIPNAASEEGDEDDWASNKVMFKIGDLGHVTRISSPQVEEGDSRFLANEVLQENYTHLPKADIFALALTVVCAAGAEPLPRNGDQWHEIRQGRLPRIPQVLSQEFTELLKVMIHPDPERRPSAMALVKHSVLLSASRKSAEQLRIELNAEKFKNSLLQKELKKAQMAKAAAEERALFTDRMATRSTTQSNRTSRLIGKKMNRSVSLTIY
T8 sequence (Q08345 19-913): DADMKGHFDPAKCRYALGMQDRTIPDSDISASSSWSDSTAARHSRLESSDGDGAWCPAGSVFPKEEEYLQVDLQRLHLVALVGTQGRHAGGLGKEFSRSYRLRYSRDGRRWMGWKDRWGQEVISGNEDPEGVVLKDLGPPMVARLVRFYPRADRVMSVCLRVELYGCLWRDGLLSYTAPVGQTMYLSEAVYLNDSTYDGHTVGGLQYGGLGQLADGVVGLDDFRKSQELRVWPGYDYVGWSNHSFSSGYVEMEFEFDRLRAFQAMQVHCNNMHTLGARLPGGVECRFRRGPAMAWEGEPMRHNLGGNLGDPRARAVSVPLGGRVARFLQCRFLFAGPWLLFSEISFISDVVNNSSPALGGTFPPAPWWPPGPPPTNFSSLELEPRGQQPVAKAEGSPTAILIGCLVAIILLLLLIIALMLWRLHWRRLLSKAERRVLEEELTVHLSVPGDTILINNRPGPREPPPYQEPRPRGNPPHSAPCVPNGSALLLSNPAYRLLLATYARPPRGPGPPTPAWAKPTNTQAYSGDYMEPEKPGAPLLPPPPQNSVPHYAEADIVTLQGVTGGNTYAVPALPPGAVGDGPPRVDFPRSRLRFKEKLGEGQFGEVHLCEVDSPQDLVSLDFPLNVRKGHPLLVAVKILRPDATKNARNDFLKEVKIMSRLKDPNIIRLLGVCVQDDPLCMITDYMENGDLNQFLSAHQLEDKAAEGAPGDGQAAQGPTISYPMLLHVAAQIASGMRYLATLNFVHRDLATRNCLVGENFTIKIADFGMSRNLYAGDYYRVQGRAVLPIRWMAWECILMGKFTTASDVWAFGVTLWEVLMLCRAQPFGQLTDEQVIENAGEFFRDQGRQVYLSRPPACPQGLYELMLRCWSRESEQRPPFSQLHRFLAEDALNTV
T7 sequence (Q00534 whole entry): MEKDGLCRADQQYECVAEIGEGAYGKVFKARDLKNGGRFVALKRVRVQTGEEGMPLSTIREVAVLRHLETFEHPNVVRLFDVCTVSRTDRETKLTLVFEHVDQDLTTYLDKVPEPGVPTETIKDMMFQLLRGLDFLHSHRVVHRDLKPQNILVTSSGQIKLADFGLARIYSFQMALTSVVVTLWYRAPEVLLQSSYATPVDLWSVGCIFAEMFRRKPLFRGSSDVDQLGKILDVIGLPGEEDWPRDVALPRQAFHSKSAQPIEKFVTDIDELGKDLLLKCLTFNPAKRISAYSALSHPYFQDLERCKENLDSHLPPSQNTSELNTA
T6 sequence (P53671 whole entry): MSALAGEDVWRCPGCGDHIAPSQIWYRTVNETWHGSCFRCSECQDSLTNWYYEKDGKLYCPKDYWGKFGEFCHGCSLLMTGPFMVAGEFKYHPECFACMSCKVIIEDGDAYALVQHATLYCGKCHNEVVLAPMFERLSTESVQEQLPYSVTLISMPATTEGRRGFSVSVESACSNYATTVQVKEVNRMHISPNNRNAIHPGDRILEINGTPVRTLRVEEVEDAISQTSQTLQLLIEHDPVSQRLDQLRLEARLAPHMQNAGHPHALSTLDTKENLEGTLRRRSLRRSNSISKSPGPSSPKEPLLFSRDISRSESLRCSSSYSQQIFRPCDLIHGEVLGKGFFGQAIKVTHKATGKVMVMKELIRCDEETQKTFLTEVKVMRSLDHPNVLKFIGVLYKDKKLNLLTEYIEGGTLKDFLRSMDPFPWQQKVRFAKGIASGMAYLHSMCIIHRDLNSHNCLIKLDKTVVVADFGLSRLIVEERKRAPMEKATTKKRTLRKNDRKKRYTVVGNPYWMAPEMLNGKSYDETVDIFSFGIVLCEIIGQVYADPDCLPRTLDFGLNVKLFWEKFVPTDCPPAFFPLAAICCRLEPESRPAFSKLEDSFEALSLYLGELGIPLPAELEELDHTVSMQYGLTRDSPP
T1 sequence (P42338 whole entry): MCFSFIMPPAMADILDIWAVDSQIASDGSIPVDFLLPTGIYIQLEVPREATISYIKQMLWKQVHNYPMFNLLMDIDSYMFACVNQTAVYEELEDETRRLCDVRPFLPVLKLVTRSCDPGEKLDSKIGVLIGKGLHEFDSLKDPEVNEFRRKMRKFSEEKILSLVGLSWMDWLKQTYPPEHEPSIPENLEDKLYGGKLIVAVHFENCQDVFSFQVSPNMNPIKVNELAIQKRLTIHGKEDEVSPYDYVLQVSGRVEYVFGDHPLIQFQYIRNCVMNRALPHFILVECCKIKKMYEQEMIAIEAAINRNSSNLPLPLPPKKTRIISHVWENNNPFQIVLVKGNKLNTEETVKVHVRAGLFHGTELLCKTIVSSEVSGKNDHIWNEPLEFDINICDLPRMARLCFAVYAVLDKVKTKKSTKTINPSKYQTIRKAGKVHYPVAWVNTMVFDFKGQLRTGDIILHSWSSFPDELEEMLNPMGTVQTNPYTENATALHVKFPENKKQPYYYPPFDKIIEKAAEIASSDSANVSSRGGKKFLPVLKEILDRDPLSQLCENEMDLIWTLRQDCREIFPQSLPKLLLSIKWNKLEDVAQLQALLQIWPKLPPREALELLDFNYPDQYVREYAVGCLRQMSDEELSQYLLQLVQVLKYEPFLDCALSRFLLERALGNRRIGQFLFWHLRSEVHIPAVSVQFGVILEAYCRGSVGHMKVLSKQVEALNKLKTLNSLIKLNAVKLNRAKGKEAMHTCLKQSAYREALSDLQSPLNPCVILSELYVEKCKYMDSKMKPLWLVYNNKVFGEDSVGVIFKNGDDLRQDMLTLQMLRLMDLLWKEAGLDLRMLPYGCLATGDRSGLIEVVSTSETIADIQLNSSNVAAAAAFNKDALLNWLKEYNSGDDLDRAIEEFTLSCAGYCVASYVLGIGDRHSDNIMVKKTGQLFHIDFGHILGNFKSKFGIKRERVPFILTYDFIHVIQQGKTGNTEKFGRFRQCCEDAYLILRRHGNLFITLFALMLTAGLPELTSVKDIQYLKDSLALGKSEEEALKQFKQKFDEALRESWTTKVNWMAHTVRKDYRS
T1 sequence (P27986 whole entry partner): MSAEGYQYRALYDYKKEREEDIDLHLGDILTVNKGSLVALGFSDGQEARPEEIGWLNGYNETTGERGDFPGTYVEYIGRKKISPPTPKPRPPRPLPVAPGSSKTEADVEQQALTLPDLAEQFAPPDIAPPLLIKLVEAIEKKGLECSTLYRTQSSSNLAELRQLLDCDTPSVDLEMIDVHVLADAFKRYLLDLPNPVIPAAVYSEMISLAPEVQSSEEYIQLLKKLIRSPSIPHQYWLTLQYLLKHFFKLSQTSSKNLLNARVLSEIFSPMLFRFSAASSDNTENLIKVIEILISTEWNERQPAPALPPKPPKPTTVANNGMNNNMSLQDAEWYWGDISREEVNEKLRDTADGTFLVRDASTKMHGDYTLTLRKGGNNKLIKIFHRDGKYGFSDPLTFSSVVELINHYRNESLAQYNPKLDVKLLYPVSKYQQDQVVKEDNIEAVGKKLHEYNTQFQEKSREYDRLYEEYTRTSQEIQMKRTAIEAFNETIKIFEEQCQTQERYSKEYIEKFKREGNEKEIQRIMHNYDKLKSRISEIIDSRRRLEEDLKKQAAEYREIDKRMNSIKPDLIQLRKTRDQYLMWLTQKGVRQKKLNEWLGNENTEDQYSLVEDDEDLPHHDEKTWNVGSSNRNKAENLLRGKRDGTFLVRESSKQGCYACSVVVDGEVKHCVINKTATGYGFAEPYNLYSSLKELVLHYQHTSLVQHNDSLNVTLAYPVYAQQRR
T3 sequence (O96013 whole entry): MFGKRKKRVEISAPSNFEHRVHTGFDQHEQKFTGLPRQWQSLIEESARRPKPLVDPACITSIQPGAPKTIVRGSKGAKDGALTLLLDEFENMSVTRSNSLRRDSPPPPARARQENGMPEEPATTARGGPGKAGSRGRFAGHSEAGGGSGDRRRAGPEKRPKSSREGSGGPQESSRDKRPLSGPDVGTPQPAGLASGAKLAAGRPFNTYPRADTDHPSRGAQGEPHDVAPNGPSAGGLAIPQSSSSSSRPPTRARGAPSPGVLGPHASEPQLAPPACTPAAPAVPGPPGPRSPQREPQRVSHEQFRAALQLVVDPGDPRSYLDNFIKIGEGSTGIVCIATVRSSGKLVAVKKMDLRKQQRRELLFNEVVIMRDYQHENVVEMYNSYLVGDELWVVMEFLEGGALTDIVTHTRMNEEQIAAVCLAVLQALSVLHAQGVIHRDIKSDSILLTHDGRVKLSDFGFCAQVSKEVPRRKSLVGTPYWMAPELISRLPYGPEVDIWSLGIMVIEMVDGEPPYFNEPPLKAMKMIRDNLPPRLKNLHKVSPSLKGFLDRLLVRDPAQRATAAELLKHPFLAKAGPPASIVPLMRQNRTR

Turning to `C[C@H]1COCCN1c1nc(-c2ccc(NC(=O)NC3CC3)cc2)cc(-c2cccnc2S(C)(=O)=O)n1` [Example 46, (S)-1-cyclopropyl-3-(4-(2-(3-methylmorpholino)-6-(2-(methylsulfonyl)pyridin-3-yl)pyrimidin-4-yl)phenyl)urea], the IC50 at PI3Kβ was at least 10 µM; at PI3Kγ, at least 10 µM; at kinases (kinome) [1], over 10 µM; on kinases (kinome) [2], over 10 µM; on kinases (kinome) [3], over 10 µM; at kinases (kinome) [4], over 10 µM. The IC50 was over 10 µM at kinases (kinome) [5], over 10 µM against kinases (kinome) [6], over 10 µM against kinases (kinome) [7] and under 0.1 µM in test [8].

Consider `C[C@H]1COCCN1c1nc(-c2ccc(NC(=O)N[C@H]3CCC[C@@H]3O)cc2)cc(-c2cc(F)ccc2S(C)(=O)=O)n1` [Example 76, 1-(4-(6-(5-fluoro-2-(methylsulfonyl)phenyl)-2-((S)-3-methylmorpholino)pyrimidin-4-yl)phenyl)-3-((1S,2S)-2-hydroxycyclopentyl)urea], for which the IC50 at PI3Kβ was at least 10 µM; at PI3Kγ, at least 10 µM; against kinases (kinome) [1], over 10 µM; against kinases (kinome) [2], over 10 µM; at kinases (kinome) [3] it was over 10 µM; against kinases (kinome) [4], over 10 µM. In addition, the IC50 on kinases (kinome) [5] is over 10 µM; against kinases (kinome) [6], over 10 µM; against kinases (kinome) [7], over 10 µM; in [8], under 0.1 µM.

(Values after patent US9249129B2, “Morpholino substituted urea derivatives as mTOR inhibitors” (CELLZOME LIMITED, priority 2010, dated 2016).)
